Experimental data taken from US10106532B2, “Inhibitors of beta-hydroxylase for treatment of cancer” (MIDWESTERN UNIVERSITY, priority 2012, dated 2018).
“Also recorded” adds a separate entry of the source.

How the values were obtained:
[1] = tested on: FOCUS HCC cells; experiment: colony formation assay; type: cell-based, human; conditions: 5 μM
Experimental: (§1) A MTT assay was performed to evaluate the effect of MO-1-1100 on cell proliferation and viability. MTT is reduced to purple formazan in living cells. FOCUS cells were used as a high ASPH expressing human HCC cell line. […] The MTT assay measures cellular metabolic activity via NAD(P)H-dependent cellular oxidoreductase enzymes. […] In order to evaluate the effect of long-term exposure of MO-1-1100, the colony formation assay (an assay of malignant potential and phenotype) in which cells were treated with inhibitor for 3 weeks was performed.

[2] = tested on: human HCC cell line FOCUS; experiment: subcutaneous xenograft of human hepatocellular carcinoma; type: in vivo, mouse; conditions: 20 mg/kg per day
Experimental: The human HCC cell line FOCUS is known to be a highly aggressive tumor forming cell line in vivo. To investigate in vivo anti-tumor efficacy of the ASPH inhibitor, MO-1-1100 at 20 mg/kg per day was administered on 5 consecutive days for 2 weeks and every other day thereafter. […] Such findings indicate that any ASPH expressing human tumor are responsive to these specific β-hydroxylase inhibitors. These ASPH inhibitor compounds represent a class of anti-tumor agents that has substantial anti-tumor activity against a large number of solid human tumors known to have a dismal prognosis.

[3] = tested on: NIH-3T3 cells; experiment: MTT assay (cell proliferation, metabolic activity); type: cell-based, mouse
Experimental: as §1

[4] = molecular target: T1, ASPH (Homo sapiens, UniProt Q12797); experiment: high throughput 14CO2 capture enzymatic assay for ASPH β-hydroxylase activity (ASPH mAb capture from lysates of treated FOCUS cells); type: biochemical; parameters: endogenous in cells; host or cells: FOCUS cells (human hepatocellular carcinoma line)
T1 sequence (Q12797 1-758): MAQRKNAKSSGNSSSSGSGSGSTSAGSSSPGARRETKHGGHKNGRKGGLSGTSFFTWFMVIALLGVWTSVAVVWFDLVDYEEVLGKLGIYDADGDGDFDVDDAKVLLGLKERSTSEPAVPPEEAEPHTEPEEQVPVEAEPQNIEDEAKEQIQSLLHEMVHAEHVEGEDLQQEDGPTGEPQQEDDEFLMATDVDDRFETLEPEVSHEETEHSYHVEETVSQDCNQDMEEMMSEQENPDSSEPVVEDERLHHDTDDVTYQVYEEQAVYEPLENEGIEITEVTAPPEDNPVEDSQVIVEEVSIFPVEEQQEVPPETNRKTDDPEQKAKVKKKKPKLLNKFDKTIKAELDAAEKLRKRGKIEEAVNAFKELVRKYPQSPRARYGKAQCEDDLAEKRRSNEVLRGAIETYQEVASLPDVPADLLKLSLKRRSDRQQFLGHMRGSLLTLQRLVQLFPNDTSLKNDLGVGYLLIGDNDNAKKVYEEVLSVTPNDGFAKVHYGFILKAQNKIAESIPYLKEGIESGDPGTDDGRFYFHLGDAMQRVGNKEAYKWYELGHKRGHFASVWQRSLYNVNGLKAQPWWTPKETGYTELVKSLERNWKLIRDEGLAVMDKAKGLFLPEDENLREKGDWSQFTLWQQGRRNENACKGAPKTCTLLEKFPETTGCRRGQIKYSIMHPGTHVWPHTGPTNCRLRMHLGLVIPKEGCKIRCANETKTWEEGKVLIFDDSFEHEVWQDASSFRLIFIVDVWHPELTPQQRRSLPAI
Experimental: In yet another aspect, the disclosure provides a method determining ASPH activity by contacting an EGF-like domain peptide with a detectably-labeled α-ketoglutarate and ASPH enzyme and measuring β-hydroxylase activity. In one embodiment, said α-ketoglutarate is ^14C-labelled, and wherein β-hydroxylase activity is measured by detecting liberated ^14CO2. In one embodiment, said liberated ^14CO2 is captured on a filter and radioactivity quantified. […] In one embodiment, said EGF-like domain comprises the amino acid sequence of […] (SEQ ID NO:1). In one embodiment, said EGF-like domain peptide comprises the consensus sequence of CDXXXCXXKXGNGXCDXXCNNAACXXDGXDC (SEQ ID NO: 2).
FIG. 3A is a diagram of the biochemical reaction catalyzed by ASPH derived from PC cell lysates. FIG. 3B is a cartoon illustrating the read-out to quantify ASPH activity in PC cells and tumors. FIG. 3C is an image of membrane was obtained by a phosphor-imager after a 16 hour exposure of the trapping filter to a phospho-screen. FIG. 3D is a bar graph showing intensities were calculated by Image J software and compared to a DMSO control. Vertical bars represent standard deviation. These figures show methods of measurement and data relating to ASPH catalytic activity.
EGF and EGF-like domains are well known in the art and generally include six cysteine residues which have been shown (in EGF) to be involved in disulfide bonds. The main structure is a two-stranded beta-sheet followed by a loop to a C-terminal short two-stranded sheet. Subdomains between the conserved cysteines vary in length. Examples include those described in Davis, C G, 1990, New Biol. 2(5):410-9; Blomquist et al., 1984, Proc Natl Acad Sci USA. 81(23):7363-7; Hommel et al., […], J Mol Biol. 227(1):271-82; Doolittle et al., 1984, Nature. 307(5951):558-60; Appella et al., 1988, FEBS Lett. 231(1):1-4; Sorkin A., 2001, Biochem Soc Trans. August; 29(Pt 4):480-4; each of which is hereby incorporated by reference). FIGS. 3A-C represents the strategy for development and characterization of the performance of an assay to measure ASPH enzymatic activity. FIG. 3A describes the biochemical reaction catalyzed by ASPH. FIG. 3B depicts the read-out of the assay. Protein lysates were extracted from FOCUS cells (high level of ASPH cell surface expression) treated with 1-10 μM of each parent compound for 24 hours. The lysates were added into 96 well-plates coated with ASPH monoclonal antibodies (mAbs) to add an antigen specific (ASPH) capture step to the assay design. After incubation and washing, only ASPH is captured on each well. The reaction is carried out with 60 μM of an EGF domain containing 39AA peptide, 100 μM FeCl2 and 40 μM ^14C labeled α-ketoglutarate were added into each well. The ^14CO2 was captured on a glass fiber membrane soaked in Ca(OH)2. […] The compound was further characterized for clinical use as an anti-tumor agent for PC and HCC and other ASPH-expressing tumors.

[5] = tested on: Huh7; experiment: cell viability; type: cell-based, human; conditions: 5 μM

SMILES: NC1=C(OS(=O)(=O)Cc2ccccc2)C(=O)C(c2ccc(Cl)cc2)O1 (racemic) [MO-1-1100]
- colony formation [1]: reduced colony formation; also recorded: strikingly inhibited
- colony formation, inhibition rate ([1]; 3 weeks): 36.8%
- signs of wasting or other adverse effects relative to control mice [2]: None of the MO-1-1100 treated mice showed signs
- tolerability [2]: tolerated well
- HCC subcutaneous xenograft growth ([2]; 5 consecutive days for 2 weeks and every other day thereafter): significantly reduced; also recorded: strikingly reduces
- tumor volumes reduced, average, compared to control mice ([2]; day 12 following treatment): 31.7%
- specificity for the β-hydroxylase activity of ASPH ([3]; FOCUS (express ASPH) versus NIH-3T3 (do not express ASPH)): highly specific; also recorded: more highly specific
- OD value of MTT ([3]; NIH-3T3 cells not expressing ASPH): no effect; also recorded: resistant
- identified as hits (screening for inhibition of β-hydroxylase activity) [4]: identified as hits
- β-hydroxylase activity ([4]; 1 μM): substantially inhibits
- ASPH enzymatic inhibitory activity (β-hydroxylase) ([4]; concentration not given): inhibit
- cell viability, inhibition rate [5]: 50%
